15 compounds from PubChem BioAssay AID328 (DTP/NCI, 2004) can be followed below.

Each structure is given as a SMILES string. “And” between values parts separate entries of the source, which are not always exact repeats. Equal values may be shown once. Toxic doses and inconclusive results are not listed.

In the experiment the test system is BDF1 mice, P388 leukemia ip, median survival T/C. The experiment in a line: NCI In Vivo Anticancer Drug Screen. Data for tumor model P388 Leukemia (intraperitoneal) in B6D2F1 (BDF1) mice. As to conditions: endpoint: median survival time, higher = longer survival. In a few lines:
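Antitumour effect was judged in vivo: survival in drug-treated mice, normalised to that of vehicle-dosed controls, gives the reported T/C.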

Where [1] appears, read: dose: 50.0 mg/kg/injection, schedule: Q01DX009 (ip), vehicle: saline with Tween-80.
Setting [2] is: dose: 100.0 mg/kg/injection, schedule: Q01DX009 (ip), vehicle: saline with Tween-80.
The mark [3] stands for this setting: dose: 100.0 mg/kg/injection, schedule: Q04DX003 (ip), vehicle: saline with Tween-80.
Where [4] appears, read: dose: 200.0 mg/kg/injection, schedule: Q04DX003 (ip), vehicle: saline with Tween-80.
Setting [5] is: dose: 400.0 mg/kg/injection, schedule: Q04DX003 (ip), vehicle: saline with Tween-80.
Where [6] appears, read: dose: 100.0 mg/kg/injection, schedule: Q01DX009 (ip), vehicle: Klucel (hydroxypropylcellulose) (HPC).
The mark [7] stands for this setting: dose: 100.0 mg/kg/injection, schedule: Q04DX003 (ip), vehicle: Klucel (hydroxypropylcellulose) (HPC).
The mark [8] stands for this setting: dose: 200.0 mg/kg/injection, schedule: Q01DX009 (ip), vehicle: Klucel (hydroxypropylcellulose) (HPC).
The mark [9] stands for this setting: dose: 200.0 mg/kg/injection, schedule: Q04DX003 (ip), vehicle: Klucel (hydroxypropylcellulose) (HPC).
The mark [10] stands for this setting: dose: 400.0 mg/kg/injection, schedule: Q04DX003 (ip), vehicle: Klucel (hydroxypropylcellulose) (HPC).

Take `Ic1ccccc1C[N+]12CN3CN(CN(C3)C1)C2`: the T/C under setting [1] was 108 % of control; the T/C (dose: 60.0 mg/kg/injection, schedule: Q01DX009 (ip), vehicle: alcohol) is 95 % of control; the T/C (dose: 85.0 mg/kg/injection, schedule: Q01DX009 (ip), vehicle: alcohol) was 95 % of control; the T/C under setting [2] is 120 % of control; the T/C (dose: 100.0 mg/kg/injection, schedule: Q01DX009 (ip), vehicle: saline) was 115 % of control; the T/C under setting [3] was 110 % of control. For the same compound, the T/C is, setting by setting: (dose: 100.0 mg/kg/injection, schedule: Q04DX003 (ip), vehicle: saline) 118 % of control; (dose: 132.0 mg/kg/injection, schedule: Q01DX009 (ip), vehicle: saline with Tween-80) 111 % of control; under setting [4], 110 % of control; (dose: 200.0 mg/kg/injection, schedule: Q04DX003 (ip), vehicle: saline) 113 % of control; (dose: 300.0 mg/kg/injection, schedule: Q01DX009 (ip), vehicle: saline with Tween-80) 100 % of control and 123 % of control; under setting [5], 95 % of control. Besides, the T/C (dose: 400.0 mg/kg/injection, schedule: Q04DX003 (ip), vehicle: saline) is 113 % of control.

Regarding `CCCCCn1cnc2c(=S)nc[nH]c21`, the T/C by setting is: under setting [2], 90 % of control; (dose: 200.0 mg/kg/injection, schedule: Q01DX009 (ip), vehicle: saline with Tween-80) 104 % of control; (dose: 400.0 mg/kg/injection, schedule: Q01DX009 (ip), vehicle: saline with Tween-80) 90 % of control.

For `N/C(=N\Cl)C(Cl)(Cl)Cl`, the T/C is 109 % of control (dose: 12.5 mg/kg/injection, schedule: Q04DX003 (ip), vehicle: saline); 150 % of control (dose: 25.0 mg/kg/injection, schedule: Q01DX009 (ip), vehicle: saline); 118 % of control (dose: 25.0 mg/kg/injection, schedule: Q04DX003 (ip), vehicle: saline); 118 % of control (dose: 33.0 mg/kg/injection, schedule: Q04DX003 (ip), vehicle: saline); 118 % of control (dose: 37.5 mg/kg/injection, schedule: Q01DX009 (ip), vehicle: saline); 118 % of control (dose: 50.0 mg/kg/injection, schedule: Q04DX003 (ip), vehicle: saline). For the same compound, the T/C (dose: 75.0 mg/kg/injection, schedule: Q04DX003 (ip), vehicle: saline) was 118 % of control.

In the case of `CC(=Nc1ccccc1)C1=C(O)C(Cc2ccccc2)NC1=O` (stereo unspecified), under setting [1], the T/C is 124 % of control.

Take `CCOc1ccc2nc(/C=C\c3cc4c5c(c3)CCCN5CCC4)ccc2c1`: the T/C reads like this: under setting [6], 90 % of control; under setting [7], 100 % of control; under setting [8], 109 % of control; under setting [9], 100 % of control; (dose: 400.0 mg/kg/injection, schedule: Q01DX009 (ip), vehicle: Klucel (hydroxypropylcellulose) (HPC)) 104 % of control; under setting [10], 95 % of control.

Turning to `CC(O)C(c1ccccc1)S(C)(=O)=O` (stereo unspecified), the T/C was 95 % of control under setting [7], 104 % of control under setting [9] and 91 % of control under setting [10].

For `O=NN(c1ccccc1)c1ccc(N(N=O)c2ccccc2)cc1`, the T/C by setting is: (dose: 50.0 mg/kg/injection, schedule: Q01DX009 (ip), vehicle: Klucel (hydroxypropylcellulose) (HPC)) 100 % of control; under setting [6], 105 % of control; under setting [8], 110 % of control.

`CCN(CC)CCCC(C)NC(=O)c1ccc2c(c1)C(=O)c1ccccc1C2=O` (stereo unspecified): the T/C (dose: 50.0 mg/kg/injection, schedule: Q01DX005 (ip), vehicle: saline) was 98 % of control and the T/C (dose: 100.0 mg/kg/injection, schedule: Q01DX005 (ip), vehicle: saline) is 89 % of control.

For `OCC1OC(OC2(CO)OC(CO)C(O)C2O)C(O)C(O)C1O` (stereo unspecified), the T/C (dose: 11.0 mg/kg/injection, schedule: Q01DX009 (ip), vehicle: saline) was 118 % of control; the T/C (dose: 22.0 mg/kg/injection, schedule: Q01DX009 (ip), vehicle: saline) was 113 % of control and 115 % of control; the T/C (dose: 67.0 mg/kg/injection, schedule: Q01DX009 (ip), vehicle: saline) is 115 % of control and 122 % of control; the T/C (dose: 100.0 mg/kg/injection, schedule: Q01DX010 (ip), vehicle: saline) was 115 % of control; the T/C (dose: 200.0 mg/kg/injection, schedule: Q01DX010 (ip), vehicle: saline) was 103 % of control; the T/C (dose: 400.0 mg/kg/injection, schedule: Q01DX010 (ip), vehicle: saline) was 100 % of control. Further, the T/C (dose: 600.0 mg/kg/injection, schedule: Q01DX010 (ip), vehicle: saline) is 115 % of control.

In the case of `O=C(/C(=C/c1ccccc1)CN1CCOCC1)c1ccccc1`, the T/C is 91 % of control (dose: 25.0 mg/kg/injection, schedule: Q04DX003 (ip), vehicle: Klucel (hydroxypropylcellulose) (HPC)); 95 % of control (dose: 50.0 mg/kg/injection, schedule: Q04DX003 (ip), vehicle: Klucel (hydroxypropylcellulose) (HPC)); 91 % of control under setting [7].

In the case of `[O]=[Cr](=[O])([OH])[O][Cr](=[O])(=[O])[OH]`, the T/C by setting is: (dose: 6.25 mg/kg/injection, schedule: Q01DX009 (ip), vehicle: saline) 113 % of control; (dose: 12.5 mg/kg/injection, schedule: Q01DX009 (ip), vehicle: saline) 100 % of control.

In the case of `CS(=O)(=O)OCCN(CCOS(C)(=O)=O)c1cccc(Cl)c1`, the T/C is 100 % of control (dose: 1.0 mg/kg/injection, schedule: Q04DX003 (ip), vehicle: saline with Tween-80); 100 % of control (dose: 2.0 mg/kg/injection, schedule: Q04DX003 (ip), vehicle: saline with Tween-80); 172 % of control (dose: 4.0 mg/kg/injection, schedule: Q04DX003 (ip), vehicle: saline with Tween-80); 163 % of control (dose: 6.25 mg/kg/injection, schedule: Q01DX009 (ip), vehicle: other); 110 % of control (dose: 6.25 mg/kg/injection, schedule: Q04DX003 (ip), vehicle: saline); 177 % of control (dose: 8.0 mg/kg/injection, schedule: Q04DX003 (ip), vehicle: saline with Tween-80). Moreover, the T/C is, setting by setting: (dose: 12.5 mg/kg/injection, schedule: Q01DX009 (ip), vehicle: Klucel (hydroxypropylcellulose) (HPC)) 168 % of control; (dose: 12.5 mg/kg/injection, schedule: Q01DX009 (ip), vehicle: other) 200 % of control; (dose: 18.7 mg/kg/injection, schedule: Q01DX009 (ip), vehicle: Klucel (hydroxypropylcellulose) (HPC)) 186 % of control; (dose: 22.0 mg/kg/injection, schedule: Q04DX003 (ip), vehicle: other) 240 % of control; (dose: 25.0 mg/kg/injection, schedule: Q01DX009 (ip), vehicle: other) 95 % of control; (dose: 50.0 mg/kg/injection, schedule: Q04DX003 (ip), vehicle: other) 90 % of control. The T/C (dose: 75.0 mg/kg/injection, schedule: Q04DX003 (ip), vehicle: other) is 90 % of control.

With `CCCCC(I)C(C)(C)[n+]1ccccc1` (stereo unspecified), the T/C is 100 % of control (dose: 3.12 mg/kg/injection, schedule: Q04DX003 (ip), vehicle: saline with Tween-80); 95 % of control (dose: 6.25 mg/kg/injection, schedule: Q04DX003 (ip), vehicle: saline with Tween-80); 100 % of control (dose: 12.5 mg/kg/injection, schedule: Q01DX009 (ip), vehicle: saline with Tween-80); 87 % of control (dose: 12.5 mg/kg/injection, schedule: Q04DX003 (ip), vehicle: saline with Tween-80); 113 % of control (dose: 25.0 mg/kg/injection, schedule: Q01DX009 (ip), vehicle: saline with Tween-80); 103 % of control (dose: 25.0 mg/kg/injection, schedule: Q04DX003 (ip), vehicle: saline with Tween-80). Besides, the T/C (dose: 50.0 mg/kg/injection, schedule: Q04DX003 (ip), vehicle: saline with Tween-80) was 96 % of control.

Regarding `COC(=O)C(Br)C(Br)c1ccc(-c2ccccc2)cc1` (stereo unspecified), the T/C runs as follows: under setting [3], 92 % of control; under setting [4], 89 % of control; under setting [5], 104 % of control.

In the case of `OC1C2CC3C1C3C2O` (stereo unspecified), the T/C under setting [3] is 86 % of control, the T/C under setting [4] is 100 % of control and the T/C under setting [5] is 104 % of control.
